Earlier results in patent US20140155265A1, “HERBICIDAL COMPOSITIN COMPRISING PINOXADEN AND FLUROXYPYR AND METHODS OF USE THEREOF” (priority 2011, published 2014).

Conditions: Pesticide Manual 15th edition

Question: With Nc1c(Cl)c(F)nc(OCC(=O)O)c1Cl [Fluoroxypyr (free carboxylic acid), Fluoroxypyr] as the molecule, how does the pKa read?
Answer: 2.94
